Experimental findings from article PMC8375990, “The flavin monooxygenase Bs3 triggers cell death in plants, impairs growth in yeast and produces H2O2 in vitro” (PLoS ONE, 2021) are described below.

By inhibition is commonly meant the change of the read-out against control, counted positive when it falls. A higher inhibition goes with a strong effect.

Structures are written as SMILES.

Experiment [1] has as its target T1, Bs3 (Capsicum annuum, UniProt A8TVP6).
T1 construct: gene T459_32270; Gateway recombination site and the two N-terminal methionines deleted
T1 sequence (A8TVP6 3-342): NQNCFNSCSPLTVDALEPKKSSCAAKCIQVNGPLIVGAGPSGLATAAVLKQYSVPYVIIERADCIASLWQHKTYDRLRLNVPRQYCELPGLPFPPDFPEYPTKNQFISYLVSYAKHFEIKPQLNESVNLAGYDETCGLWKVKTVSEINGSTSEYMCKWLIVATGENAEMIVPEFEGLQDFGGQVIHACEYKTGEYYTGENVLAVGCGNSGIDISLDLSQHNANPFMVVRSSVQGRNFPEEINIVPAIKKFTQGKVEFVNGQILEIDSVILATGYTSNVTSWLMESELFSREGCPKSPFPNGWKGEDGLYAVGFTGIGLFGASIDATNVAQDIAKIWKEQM
The experiment is described as follows: NADPH oxidation, decrease of absorbance at […] nm. It is filed as biochemical.

In experiment [2] the target is T1, Bs3. The experiment is described as follows: UV-vis spectrum of purified protein. It is filed as binding. The conditions noted are these: FAD added to lysis buffer; co-purified.
Experiment [3] deals with T2, Bs3 (Capsicum annuum, UniProt A8TVP6, S211A).
T2 construct: gene T459_32270; Gateway recombination site and the two N-terminal methionines deleted
T2 sequence (A8TVP6 entry or part of it S211A): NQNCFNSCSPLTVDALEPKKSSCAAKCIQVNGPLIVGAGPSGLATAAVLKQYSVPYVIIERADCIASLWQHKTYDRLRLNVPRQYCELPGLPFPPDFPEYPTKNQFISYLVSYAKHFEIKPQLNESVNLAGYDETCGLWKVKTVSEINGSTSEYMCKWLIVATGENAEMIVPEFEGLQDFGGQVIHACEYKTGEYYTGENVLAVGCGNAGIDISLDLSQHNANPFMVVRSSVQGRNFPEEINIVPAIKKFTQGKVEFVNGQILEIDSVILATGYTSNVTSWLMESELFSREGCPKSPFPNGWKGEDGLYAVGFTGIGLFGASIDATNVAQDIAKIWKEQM
The experiment can be described thus: UV-vis spectrum of purified protein. It counts as binding. The conditions noted are these: FAD added to lysis buffer; co-purified.

For the molecule `Sc1nnc(-c2ccc(Cl)cc2)[nH]1` [yucasin], at 50 µM the inhibition against Bs3 [1] was 95%.
In the case of `Cc1cc2nc3c(=O)[nH]c(=O)nc-3n(C[C@H](O)[C@H](O)[C@H](O)COP(=O)(O)OP(=O)(O)OC[C@H]3O[C@@H](n4cnc5c(N)ncnc54)[C@H](O)[C@@H]3O)c2cc1C` [FAD], the “UV-vis spectrum of purified protein” value was “purified Bs3 and Bs3S211A proteins were bright yellow and the UV-vis spectra show characteristic peaks” on Bs3 [2]; “purified Bs3 and Bs3S211A proteins were bright yellow and the UV-vis spectra show characteristic peaks” on Bs3 [3].
At Bs3 [1], `Cn1cc[nH]c1=S` [methimazole] gave an inhibition at 50 µM of 79%.
